The record followed here is patent US20240239796A1, “CRYSTALLINE POLYMORPHS OF EPIDERMAL GROWTH FACTOR RECEPTOR INHIBITOR, AND COMPOSITIONS AND METHODS THEREOF” (Crimson BioPharm Inc., priority 2022, published 2024).

Common to all, as to type: physicochemical
Data set [1] can be described thus: Inter-conversion study (competitive slurry). The settings on record: for Slurry at 50° C. 1 or 7 d (wet cake) / Slurry at RT (~20° C.) 3 d (wet cake): competitive slurry in IPA, resulting form; for Form at 7 d: slurry in ACN/water 1/9 (v/v); for form after slurry: ACN-water (1/9). The procedure:
(20 mg/mL) and RT (10 mg/mL), and in ACN-water (1/9) at 50° C. (10 mg/mL) and RT (5 mg/mL).
The mixture of crystalline Form I and crystalline Form V of the sample was suspended in IPA at 50° C. (20 mg/mL) and RT (5 mg/mL).
The residual solids from both mixtures were obtained and characterized.

The nature of a further data set: Rough solubility testing. Particulars: for solubility: thermodynamic from solid, ~20° C., read-out: Solubility of Tosylate (mg/mL, ~20° C.); for solubility (in words): RT (~20° C.). As for the experimental part:
About 2 mg of crystalline Form I was weighed into glass vials, and then different selected solvents were added in the vial stepwise until all solid was dissolved. This experiment was conducted by manual dilution combined with visual observation at ˜20° C. The total volume of solvent added was recorded.

Another data set can be described thus: Slurry study. Particulars: XRPD; for Form of wet cake at 1 day: 50° C.; for Form of wet cake at 4 days: RT (~20° C.), ~25 mg/mL. As for the experimental part:
Appropriate amount of crystalline Form I was added into different solvents to make suspension. The suspensions were kept stirring at room temperature (RT, ˜20° C.) or 50° C., respectively. Solid samples were collected and analyzed by XRPD at a specific time. If new XRPD patterns were identified, the sample was further analyzed by DSC and TGA.

A short description of the next data set: Water activity study. As for the experimental part:
A certain amount (e.g., ˜70 mg) of crystalline Form I was stirred in 500 μL of acetone-water mixtures with different water content (5%, 10%, 30%, 50%, 70% and 90%) at RT (˜20° C.) for 3, 7 or 8 days. Residual solids were collected and characterized.

Data set [2] is described as follows: Stability study (grinding, high humidity). The procedure:
A certain amount (e.g., ˜10 mg) of crystalline Form I was ground for 2 min or put at 25° C./92.5% RH for 2 weeks. Then the sample was tested by XRPD to determine the physical stability.

Data set [3] can be described thus: Form conversion on heating / desolvation (XRPD, FIG. 5, FIG. 8). Particulars: desolvation at 170° C.
Data set [4] can be described thus: Dynamic moisture sorption analysis (DVS). As for the experimental part:
DVS was determined using DVS Intrinsic (SMS, UK). A sample was tested at a targeted relative humidity (RH) of 10 to 90% full cycle in step mode. The analysis was performed in 10% RH increments: • Equilibrium: 60 min; • RH (%) measurement points: • Sorption: 0, 10, 20, 30, 40, 50, 60, 70, 80, 90 • Desorption: 80, 70, 60, 50, 40, 30, 20, 10, 0.

The mark [5] stands for this setting: slurry in Acetone/water 1/1 (v/v), water activity 0.93, RT.
The mark [6] stands for this setting: slurry in Acetone/water 1/9 (v/v), water activity 0.98, RT.
Setting [7] is: slurry in Acetone/water 3/7 (v/v), water activity 0.95, RT.
[8] abbreviates: slurry in Acetone/water 7/3 (v/v), water activity 0.88, RT.
Where [9] appears, read: slurry in Acetone/water 9/1 (v/v), water activity 0.72, RT.
Setting [10] is: slurry in Acetone/water 19/1 (v/v), water activity 0.31, RT.

Read-outs that look alike come from different tables or passages of the source.

With `C=CC(=O)Nc1cc(Nc2nccc(-n3ccc4cccnc43)n2)c(OC)cc1N(C)CCN(C)C.Cc1ccc(S(=O)(=O)O)cc1` [Form I and III (1:1)], in data set [1] (50° C.), the “Slurry at 50° C. 1 or 7 d (wet cake)” value is listed as “Form I” and the “Form at 7 d” value is reported as “Form III”. In data set [1] (RT), the “Slurry at RT (~20° C.) 3 d (wet cake)” value is on record as “Form I”. For the same compound, the “Form at 7 d” value in data set [1] (RT (~20° C.)) is on record as “Form VI”.

In the case of `C=CC(=O)Nc1cc(Nc2nccc(-n3ccc4cccnc43)n2)c(OC)cc1N(C)CCN(C)C.Cc1ccc(S(=O)(=O)O)cc1` [Form I and V (1:1)], the “Slurry at 50° C. 1 or 7 d (wet cake)” value in data set [1] (50° C.) is “From I”. In addition, the “Slurry at RT (~20° C.) 3 d (wet cake)” value in data set [1] (RT) is reported as “Form I”.

With `C=CC(=O)Nc1cc(Nc2nccc(-n3ccc4cccnc43)n2)c(OC)cc1N(C)CCN(C)C.Cc1ccc(S(=O)(=O)O)cc1` [Form I, N-(5-((4-(1H-pyrrolo[2,3-b]pyridin-1-yl)pyrimidin-2-yl)amino)-2-((2-(dimethylamino)ethyl)(methyl)amino)-4-methoxyphenyl)acrylamide tosylate salt], the solubility in the data set “Rough solubility testing” (ACN (acetonitrile), organic solvent or mixture, solvent ACN) was around 2.2 mg/mL; in the data set “Rough solubility testing” (organic solvent or mixture, solvent Acetone), around 0.95 mg/mL; in the data set “Rough solubility testing” (organic solvent or mixture, solvent DCM), around 5.1 mg/mL; in “Rough solubility testing” (organic solvent or mixture, solvent EA), below 1 mg/mL; in the data set “Rough solubility testing” (organic solvent or mixture, solvent EtOH) it was around 1.9 mg/mL; in the data set “Rough solubility testing” (organic solvent or mixture, solvent Heptane) it was below 1 mg/mL. Also, the solubility in the data set “Rough solubility testing” (organic solvent or mixture, solvent IPA) is below 1.11 mg/mL; in the data set “Rough solubility testing” (organic solvent or mixture, solvent IPAC) it was below 1.2 mg/mL; in “Rough solubility testing” (organic solvent or mixture, solvent Isobutanol) it was below 1 mg/mL; in the data set “Rough solubility testing” (organic solvent or mixture, solvent MEK), around 0.92 mg/mL; in the data set “Rough solubility testing” (organic solvent or mixture, solvent MTBE), below 1.1 mg/mL; in “Rough solubility testing” (organic solvent or mixture, solvent MeOH), around 27.3 mg/mL. Further, the solubility was below 1.14 mg/mL in “Rough solubility testing” (organic solvent or mixture, solvent THF); below 1.2 mg/mL in “Rough solubility testing” (organic solvent or mixture, solvent Toluene); below 1.02 mg/mL in “Rough solubility testing” (solvent Water). Also, the “solubility (in words)” value in “Rough solubility testing” (in MeOH and DCM) is listed as “relatively high solubility”; in the data set “Rough solubility testing” (in the other single solvents (not MeOH, DCM)) it was “very low solubility”. Besides, the “Form of wet cake at 1 day” value in the data set “Slurry study” (slurry in ACN), in “Slurry study” (slurry in Acetone), in the data set “Slurry study” (slurry in EA), in the data set “Slurry study” (slurry in EtOH), in the data set “Slurry study” (slurry in Heptane) and in the data set “Slurry study” (slurry in IPA) was “Form I” in each case. The “Form of wet cake at 1 day” value in the data set “Slurry study” (slurry in IPAC), in “Slurry study” (slurry in Isobutanol), in “Slurry study” (slurry in MEK), in “Slurry study” (slurry in MTBE), in the data set “Slurry study” (slurry in THF) and in the data set “Slurry study” (slurry in Toluene) was “Form I” throughout. Further, the “Form of wet cake at 1 day” value in the data set “Slurry study” (slurry in Water) is recorded as “Form I”. Also, the “Form of wet cake at 4 days” value in the data set “Slurry study” (slurry in ACN), in the data set “Slurry study” (slurry in Acetone), in “Slurry study” (slurry in EA), in “Slurry study” (slurry in EtOH), in “Slurry study” (slurry in Heptane) and in “Slurry study” (slurry in IPA) was “Form I” throughout. Moreover, the “Form of wet cake at 4 days” value in the data set “Slurry study” (slurry in IPAC), in “Slurry study” (slurry in Isobutanol), in “Slurry study” (slurry in MEK), in “Slurry study” (slurry in MTBE), in “Slurry study” (slurry in THF) and in the data set “Slurry study” (slurry in Toluene) was “Form I” in each case. Further, in “Slurry study” (slurry in Water), the “Form of wet cake at 4 days” value is given as “Form I”. Besides, the “Form at 3 d” value in “Water activity study” (setting [5]) was “Form V”; in “Water activity study” (setting [6]), “Form I”; in “Water activity study” (setting [7]) it was “Form V”; in the data set “Water activity study” (setting [8]) it was “Form V”; in “Water activity study” (setting [9]), “Form V”; in the data set “Water activity study” (setting [10]), “Form I”. The “Form at 7 d” value in the data set “Water activity study” (setting [5]) is reported as “Form V”; in the data set “Water activity study” (setting [6]) it was “Form I”; in the data set “Water activity study” (setting [7]), “Form V”; in “Water activity study” (setting [8]), “Form V”; in the data set “Water activity study” (setting [9]) it was “Form V”; in “Water activity study” (setting [10]) it was “Form VII”. The “Form at 8 d” value in “Water activity study” (setting [10]) is “Form V”. Besides, the solid-state stability entry in data set [2] (after stressing with temperature and high RH) is on record as “good solid-state stability”. Besides, the “Physical stability (form change by XRPD)” value in data set [2] (high humidity, 25° C./92.5% RH for 2 weeks) was “No form change”; in data set [2] (mechanical stress (grinding, 2 min)), “No form change”. Moreover, the form after slurry result is recorded as “crystalline Form III” in data set [1] (50° C.) and “crystalline Form VI” in data set [1] (RT). In data set [1] (polymorph screening, anhydrate forms), the “relative stability among crystal forms” value is on record as “most stable anhydrate form”.

On to `C=CC(=O)Nc1cc(Nc2nccc(-n3ccc4cccnc43)n2)c(OC)cc1N(C)CCN(C)C.Cc1ccc(S(=O)(=O)O)cc1` [Form II, N-(5-((4-(1H-pyrrolo[2,3-b]pyridin-1-yl)pyrimidin-2-yl)amino)-2-((2-(dimethylamino)ethyl)(methyl)amino)-4-methoxyphenyl)acrylamide tosylate salt], for which the “form conversion after desolvation” value in data set [3] is recorded as “transform to crystalline Form III”.

In the case of `C=CC(=O)Nc1cc(Nc2nccc(-n3ccc4cccnc43)n2)c(OC)cc1N(C)CCN(C)C.Cc1ccc(S(=O)(=O)O)cc1` [Form VI, N-(5-((4-(1H-pyrrolo[2,3-b]pyridin-1-yl)pyrimidin-2-yl)amino)-2-((2-(dimethylamino)ethyl)(methyl)amino)-4-methoxyphenyl)acrylamide tosylate salt], in data set [4] (80% RH and 25° C.), the water sorption is listed as 0.72%. The hygroscopicity result in data set [4] (DVS, 80% RH and 25° C.) is recorded as “slightly hygroscopic”. For the same compound, the “crystalline form change after DVS test” value in data set [4] (after DVS test) is given as “no crystalline form change”.
